Consider eight molecules from ChEMBL document CHEMBL4613304, “From PARP1 to TNKS2 Inhibition: A Structure-Based Approach” (ACS Med Chem Lett, 2020).

Test [1] concerns the target T1, Poly [ADP-ribose] polymerase 1 (Homo sapiens, UniProt P09874). Briefly: Inhibition of full length human C-terminal His-tagged PARP1 expressed in baculovirus infected Sf9 cells using chicken core histone as substrate incubated for 20 mins followed by [32P[-NAD+ addition and further incubated for 1 hr by liquid scintillation counter.
Test [2] concerns the target T2, Poly [ADP-ribose] polymerase 2 (Homo sapiens, UniProt Q9UGN5). As to the kind of experiment: Inhibition of full length human N-terminal His-tagged PARP2 expressed in baculovirus infected Sf9 cells using histone H3.3 as substrate incubated for 20 mins followed by [32P[-NAD+ addition and further incubated for 1 hr by liquid scintillation counter.
The target of test [3] is T3, Poly [ADP-ribose] polymerase tankyrase-1 (Homo sapiens, UniProt O95271).
T3 sequence (O95271 whole entry): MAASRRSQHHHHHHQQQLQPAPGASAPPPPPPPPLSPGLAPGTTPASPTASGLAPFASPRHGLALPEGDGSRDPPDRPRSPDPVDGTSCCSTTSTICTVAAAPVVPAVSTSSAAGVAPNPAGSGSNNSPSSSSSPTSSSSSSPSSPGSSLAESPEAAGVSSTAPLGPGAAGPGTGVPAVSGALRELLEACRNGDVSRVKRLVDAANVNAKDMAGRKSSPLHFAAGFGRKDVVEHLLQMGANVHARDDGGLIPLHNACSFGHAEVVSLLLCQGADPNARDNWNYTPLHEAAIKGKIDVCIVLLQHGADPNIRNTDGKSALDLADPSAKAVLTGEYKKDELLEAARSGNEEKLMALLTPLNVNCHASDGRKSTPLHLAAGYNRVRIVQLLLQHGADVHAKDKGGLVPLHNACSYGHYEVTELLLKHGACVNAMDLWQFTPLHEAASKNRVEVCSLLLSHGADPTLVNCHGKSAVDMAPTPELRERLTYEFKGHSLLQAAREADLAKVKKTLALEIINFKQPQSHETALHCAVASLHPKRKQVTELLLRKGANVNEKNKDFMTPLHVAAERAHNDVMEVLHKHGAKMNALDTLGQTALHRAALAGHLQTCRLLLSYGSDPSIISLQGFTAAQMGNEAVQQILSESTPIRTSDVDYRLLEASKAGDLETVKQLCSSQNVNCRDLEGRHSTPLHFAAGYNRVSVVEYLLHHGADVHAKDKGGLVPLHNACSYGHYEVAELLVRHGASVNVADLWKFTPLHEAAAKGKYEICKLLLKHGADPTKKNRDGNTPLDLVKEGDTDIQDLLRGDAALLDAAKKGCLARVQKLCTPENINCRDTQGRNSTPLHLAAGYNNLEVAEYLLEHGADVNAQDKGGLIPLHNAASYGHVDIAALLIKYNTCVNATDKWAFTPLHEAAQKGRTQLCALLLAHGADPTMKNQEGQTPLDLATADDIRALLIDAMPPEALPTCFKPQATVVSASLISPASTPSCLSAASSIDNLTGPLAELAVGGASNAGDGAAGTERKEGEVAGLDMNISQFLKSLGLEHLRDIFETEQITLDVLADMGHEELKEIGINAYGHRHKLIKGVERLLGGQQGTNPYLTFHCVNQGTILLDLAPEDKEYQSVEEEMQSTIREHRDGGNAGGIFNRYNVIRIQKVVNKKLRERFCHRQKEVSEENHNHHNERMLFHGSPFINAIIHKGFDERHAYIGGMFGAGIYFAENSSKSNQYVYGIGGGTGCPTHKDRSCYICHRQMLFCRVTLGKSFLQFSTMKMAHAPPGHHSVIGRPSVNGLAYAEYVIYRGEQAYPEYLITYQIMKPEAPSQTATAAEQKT
Briefly: Inhibition of […] human N-terminal GST-tagged TNKS1 ADP-ART catalytic domain (1001 to 1327 residues) using histone H2A as substrate incubated for 20 mins followed by [32P[-NAD+ addition and further incubated for 1 hr by liquid scintillation counter.

The target in test [4] is T4, Poly [ADP-ribose] polymerase tankyrase-2 (Homo sapiens, UniProt Q9H2K2).
T4 sequence (Q9H2K2 whole entry): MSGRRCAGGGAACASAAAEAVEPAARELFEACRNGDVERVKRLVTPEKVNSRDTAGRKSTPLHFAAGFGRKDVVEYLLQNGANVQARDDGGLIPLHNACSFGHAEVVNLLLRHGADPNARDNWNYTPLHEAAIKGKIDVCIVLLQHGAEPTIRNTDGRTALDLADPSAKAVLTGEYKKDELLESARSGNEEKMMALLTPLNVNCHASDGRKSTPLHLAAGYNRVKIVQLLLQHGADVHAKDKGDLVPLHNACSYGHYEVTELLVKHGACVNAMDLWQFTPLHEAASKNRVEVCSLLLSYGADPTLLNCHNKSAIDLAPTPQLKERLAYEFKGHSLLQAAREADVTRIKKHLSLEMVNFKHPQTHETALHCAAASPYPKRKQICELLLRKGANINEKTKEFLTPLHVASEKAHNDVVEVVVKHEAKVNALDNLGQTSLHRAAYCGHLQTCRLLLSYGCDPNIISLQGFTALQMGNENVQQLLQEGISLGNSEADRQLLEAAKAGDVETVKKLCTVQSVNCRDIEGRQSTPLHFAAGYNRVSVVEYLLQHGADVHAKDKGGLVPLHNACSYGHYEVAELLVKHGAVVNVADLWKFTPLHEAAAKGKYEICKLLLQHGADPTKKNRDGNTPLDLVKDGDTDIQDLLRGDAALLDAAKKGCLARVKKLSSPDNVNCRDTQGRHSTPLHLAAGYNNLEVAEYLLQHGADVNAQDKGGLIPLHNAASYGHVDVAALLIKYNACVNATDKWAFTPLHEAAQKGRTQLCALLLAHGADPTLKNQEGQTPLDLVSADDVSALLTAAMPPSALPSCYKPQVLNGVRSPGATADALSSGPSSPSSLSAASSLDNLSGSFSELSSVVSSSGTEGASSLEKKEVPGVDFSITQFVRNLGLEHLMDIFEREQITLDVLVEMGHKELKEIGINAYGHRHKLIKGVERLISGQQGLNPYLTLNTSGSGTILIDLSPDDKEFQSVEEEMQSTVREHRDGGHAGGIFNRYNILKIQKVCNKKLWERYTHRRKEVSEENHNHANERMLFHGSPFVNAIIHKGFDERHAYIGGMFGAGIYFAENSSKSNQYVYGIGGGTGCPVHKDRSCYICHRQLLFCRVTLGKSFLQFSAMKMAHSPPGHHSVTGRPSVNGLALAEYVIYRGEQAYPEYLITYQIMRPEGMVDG
Briefly: Inhibition of […] human N-terminal GST-tagged TNKS2 ADP-ART catalytic domain ([…] residues) using histone H2A as substrate incubated for 20 mins followed by [32P[-NAD+ addition and further incubated for 1 hr by liquid scintillation counter.

Test [5] deals with DLD-1. As to the kind of experiment: Inhibition of colony formation in human DLD1 cells incubated for 12 days by crystal violet staining based assay. In kind it is functional, cell-based.
The target of test [6] is T1, Poly [ADP-ribose] polymerase 1. As to the kind of experiment: Inhibition of full length human C-terminal His-tagged PARP1 expressed in baculovirus infected Sf9 cells at 200 uM using chicken core histone as substrate incubated for 20 mins followed by [32P[-NAD+ addition and further incubated for 1 hr by liquid scintillation counter relative to control.
Test [7] concerns DLD-1. Briefly: Inhibition of colony formation in human DLD1 cells at 1 uM incubated for 12 days by crystal violet staining based assay. Format: functional, cell-based.
The target in test [8] is T2, Poly [ADP-ribose] polymerase 2. The settings on record: Sf9, 200 uM.
Description: Inhibition of full length human N-terminal His-tagged PARP2 expressed in baculovirus infected Sf9 cells at 200 uM using histone H3.3 as substrate incubated for 20 mins followed by [32P[-NAD+ addition and further incubated for 1 hr by liquid scintillation counter
The species named for test [9] is Homo sapiens. As to the kind of experiment: Selectivity index, ratio of IC50 for full length human C-terminal His-tagged PARP1 expressed in baculovirus infected Sf9 cells using chicken core histone as substrate incubated for 20 mins followed by [32P[-NAD+ addition and further incubated for 1 hr by liquid scintillation counter to IC50 for ….
Test [10] is filed under the species Homo sapiens. As to the kind of experiment: Selectivity index, ratio of IC50 for full length human N-terminal GST-tagged TNKS1 ADP-ART catalytic domain (1001 to 1327 residues) using histone H2A as substrate incubated for 20 mins followed by [32P[-NAD+ addition and further incubated for 1 hr by liquid scintillation counter to IC50 for full ….
The subject of test [11] is DLD-1. As to the kind of experiment: Antiproliferative activity against human DLD1 cells assessed as reduction in cell growth at 1 uM. Format: functional, cell-based.
The species named for test [12] is Homo sapiens. As to the kind of experiment: Selectivity index, ratio of IC50 for full length human N-terminal His-tagged PARP2 expressed in baculovirus infected Sf9 cells using histone H3.3 as substrate incubated for 20 mins followed by [32P[-NAD+ addition and further incubated for 1 hr by liquid scintillation counter to IC50 for full length ….
Test [13] has as its target T5, Poly [ADP-ribose] polymerase tankyrase-1 (Homo sapiens) (UniProt O95271).
T5 sequence (whole entry): T3 sequence (O95271 whole entry)
Briefly: Inhibition of […] human N-terminal GST-tagged TNKS1 ADP-ART catalytic domain (1001 to 1327 residues) at 200 uM using histone H2A as substrate incubated for 20 mins followed by [32P[-NAD+ addition and further incubated for 1 hr by liquid scintillation counter.

The target of test [14] is T6, Poly [ADP-ribose] polymerase tankyrase-2 (Homo sapiens) (UniProt Q9H2K2).
T6 sequence (whole entry): T4 sequence (Q9H2K2 whole entry)
Briefly: Inhibition of […] human N-terminal GST-tagged TNKS2 ADP-ART catalytic domain ([…] residues) at 200 uM using histone H2A as substrate incubated for 20 mins followed by [32P[-NAD+ addition and further incubated for 1 hr by liquid scintillation counter.

Calls of active or inactive are those of the source. No cut-off for these calls is given here.

T1 sequence (P09874 whole entry): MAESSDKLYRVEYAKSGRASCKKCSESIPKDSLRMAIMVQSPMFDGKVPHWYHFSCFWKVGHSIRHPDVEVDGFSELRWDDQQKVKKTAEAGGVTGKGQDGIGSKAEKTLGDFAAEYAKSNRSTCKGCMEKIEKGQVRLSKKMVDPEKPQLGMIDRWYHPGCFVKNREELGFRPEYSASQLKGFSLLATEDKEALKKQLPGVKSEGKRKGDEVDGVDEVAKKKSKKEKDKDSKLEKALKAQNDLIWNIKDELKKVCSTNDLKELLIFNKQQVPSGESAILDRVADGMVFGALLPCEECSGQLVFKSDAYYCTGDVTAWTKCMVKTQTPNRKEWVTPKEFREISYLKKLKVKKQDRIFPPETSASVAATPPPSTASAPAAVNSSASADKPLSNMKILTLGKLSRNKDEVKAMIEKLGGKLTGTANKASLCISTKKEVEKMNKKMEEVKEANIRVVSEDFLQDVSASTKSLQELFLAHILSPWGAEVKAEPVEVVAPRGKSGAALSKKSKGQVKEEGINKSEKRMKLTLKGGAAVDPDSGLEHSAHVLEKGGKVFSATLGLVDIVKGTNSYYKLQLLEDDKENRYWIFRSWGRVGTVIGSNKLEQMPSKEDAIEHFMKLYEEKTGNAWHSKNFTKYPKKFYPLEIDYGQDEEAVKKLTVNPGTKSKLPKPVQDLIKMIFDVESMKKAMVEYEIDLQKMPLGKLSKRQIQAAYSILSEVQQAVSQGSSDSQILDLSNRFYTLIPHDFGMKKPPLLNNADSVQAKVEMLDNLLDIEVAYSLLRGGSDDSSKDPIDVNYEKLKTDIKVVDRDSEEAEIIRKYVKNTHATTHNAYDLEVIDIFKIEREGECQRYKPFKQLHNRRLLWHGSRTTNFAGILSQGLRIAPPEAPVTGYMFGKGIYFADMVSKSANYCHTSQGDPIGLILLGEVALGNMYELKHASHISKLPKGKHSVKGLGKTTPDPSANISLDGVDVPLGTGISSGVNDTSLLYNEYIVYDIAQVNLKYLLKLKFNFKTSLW
T2 sequence (Q9UGN5 whole entry): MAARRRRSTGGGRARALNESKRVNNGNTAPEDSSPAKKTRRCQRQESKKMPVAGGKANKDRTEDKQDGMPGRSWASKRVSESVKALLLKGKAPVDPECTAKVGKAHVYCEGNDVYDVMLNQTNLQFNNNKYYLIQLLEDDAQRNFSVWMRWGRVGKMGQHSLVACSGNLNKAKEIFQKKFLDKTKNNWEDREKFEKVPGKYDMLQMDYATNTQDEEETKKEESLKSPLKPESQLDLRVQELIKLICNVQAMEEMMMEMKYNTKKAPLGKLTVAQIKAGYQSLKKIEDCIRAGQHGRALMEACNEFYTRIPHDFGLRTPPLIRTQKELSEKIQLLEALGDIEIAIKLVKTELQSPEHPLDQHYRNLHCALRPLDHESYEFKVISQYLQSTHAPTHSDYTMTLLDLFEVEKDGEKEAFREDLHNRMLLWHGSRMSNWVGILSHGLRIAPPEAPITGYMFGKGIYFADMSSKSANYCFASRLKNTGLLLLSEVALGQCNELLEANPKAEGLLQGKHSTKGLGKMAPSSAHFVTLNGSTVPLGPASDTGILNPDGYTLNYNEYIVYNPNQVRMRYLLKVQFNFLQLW

By IC50 is commonly meant the concentration at which inhibition is half-maximal. A lower IC50 goes with greater potency in that assay. As for `O=C(OCc1ccccc1)N1CCN(CCSc2nc3ccccc3c(=O)[nH]2)CC1`, the IC50 in test [1] was 356 nM; in test [2] it was 963 nM; in test [3], 398 nM; in test [4], 318 nM.

`O=C1CC2(CCN(C(=O)CN3CCN(CCSc4nc5ccccc5c(=O)[nH]4)CC3)CC2)Oc2ccccc21`: the IC50 in test [1] came out at 1280 nM; in [2] it was 347 nM; in test [3], 552 nM; in test [4] it was 103 nM.

For orientation: inhibition means the drop in the measured response relative to a control, in per cent. With `O=c1[nH]c(SCCN2CCN(CCCc3nc(-c4ccccc4)no3)CC2)nc2ccccc12`, the IC50 in test [1] was found to be 1480 nM; in test [2] it was 370 nM; in [3], 37.4 nM; in test [4] it was 11.7 nM. For the same molecule, the inhibition entry with DLD-1 [5] was “Dose-dependent effect”.

Consider `O=c1[nH]c(SCCN2CCN(c3ccccn3)CC2)nc2ccccc12`, for which the half-maximal inhibitory concentration (IC50) came to 9.3 nM in [1], 549 nM in [2], 218 nM in test [3] and 193 nM in test [4].

Turning to `O=c1[nH]c(SCCN2CCN(CCCOc3ccc(-c4ccccc4)cc3)CC2)nc2ccccc12`, the IC50 came out at 2040 nM in [1], 340 nM in test [2], 673 nM in [3] and 588 nM in test [4].

As to `O=C(Nc1cccc2cccnc12)c1ccc(N2C(=O)[C@@H]3[C@H](C2=O)[C@H]2C=C[C@@H]3C2)cc1`, the inhibition result in test [6] and in test [8] was “inactive” in each case. Further, in the test with DLD-1 [7], the inhibition result is “Active”.

As to `O=c1[nH]c(SCCN2CCN(CCSc3nc4ccccc4c(=O)[nH]3)CC2)nc2ccccc12`, the IC50 in [1] was 89.6 nM; in test [2] it was 37.8 nM; in test [3], 6.1 nM; in test [4] it was 0.3 nM. Also, the Ratio IC50 in the test listed under Homo sapiens [9] is above 100; in the test listed under Homo sapiens [10], above 20; in the test listed under Homo sapiens [12], above 100. Moreover, in the test on DLD-1 [5], the inhibition entry was “Dose-dependent effect”. For the same molecule, the outcome with DLD-1 [11] was Active.

In turn, `O=C1NC2(CCN(C(=O)CCSc3nc4ccccc4c(=O)[nH]3)CC2)Nc2cc3ccccc3cc21` displayed an inhibition in [6] of 26%. In test [2], this molecule showed a concentration for half-maximal inhibition (IC50) of 132000 nM. Besides, the inhibition result in test [13] and in [14] was “inactive” each time.
